From patent US10245261B2, “Substituted indol-5-ol derivatives and their therapeutic applications” (NantBioScience, Inc., priority 2013, dated 2019)

What was measured:
[1] = system: U251 human CNS tumor xenograft; assay: U251 human CNS tumor xenograft model in nude mice; assay type: in vivo, mouse; conditions: 60 mg/kg intraperitoneal
Description: The in vivo anti-tumor efficacy of Compound 53 has been studied using U251 human CNS tumor xenograft model in nude mice (FIG. 16). This was a subcutaneous early stage experiment (defined as a median tumor staging size less than 200 mg). Compound 53 or vehicle control was administered by Intraperitoneal injection for various days with different doses. […] Compound 53 was well tolerated at this doses with maximum body weight lose 3.4%.

[2] = system: SC LOX IMVI Melanoma Xenografts; assay: SC LOX IMVI Melanoma Xenografts model in nude mice; assay type: in vivo, mouse; conditions: 50 mg/kg intraperitoneal
Description: The in vivo anti-tumor efficacy of Compound 53 has been studied using SC LOX IMVI Melanoma Xenografts model in nude mice (FIG. 76). This was a subcutaneous early stage experiment (defined as a median tumor staging size less than 200 mg). Compound 53 or vehicle control was administered by Intraperitoneal injection for various days with different doses.

LKB1(h) = LKB1(h) (Homo sapiens, UniProt Q15831); assay: KinaseProfiler kinase assay; assay type: biochemical
Outline: (§1)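 Kinase activity is followed by incorporation of 33P from [γ-33P]ATP in 8 mM MOPS pH 7.0 with 10 mM Mg acetate and 0.2 mM EDTA over 40 min at room temperature. Inhibition is scaled between no-kinase and phosphopeptide control wells.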

EphA5(h) = EphA5(h) (Homo sapiens, UniProt P54756); assay: KinaseProfiler kinase assay; assay type: biochemical
Outline: as §1

TAO3(h) = TAO3(h) (Homo sapiens, UniProt Q9H2K8); assay: KinaseProfiler kinase assay; assay type: biochemical
Outline: as §1

AMPKα1(h) = AMPKα1(h) (Homo sapiens, UniProt Q13131); assay: KinaseProfiler kinase assay; assay type: biochemical
Outline: as §1

SAPK2a(T106M)(h) = SAPK2a(T106M)(h) (Homo sapiens, UniProt Q16539, T106M); assay: KinaseProfiler kinase assay; assay type: biochemical
Outline: as §1

IKKβ(h) = IKKβ(h) (Homo sapiens, UniProt O14920); assay: KinaseProfiler kinase assay; assay type: biochemical
Outline: as §1

Axl(h) = Axl(h) (Homo sapiens, UniProt P30530); assay: KinaseProfiler kinase assay; assay type: biochemical
Outline: as §1

[3] = system: FLT3 phosphorylation (pFLT3) of MV4-11 tumors; assay: FLT3 phosphorylation in MV4-11 tumor xenografts after oral dosing; assay type: in vivo; conditions: Mus musculus, 24 hour after single oral 50 mg/kg
Description: (§2) The mice carrying the established MV4-11 tumor xenografts (tumor volume around 150 mm^3) were given an oral dose of 50 mg/kg NTW-3456. At 0, 1, 2, 8, 16, 24 hours after dosing, three were euthanized. The blood samples were collected and plasma was prepared with centrifuge for LCMS assay. And the tumors were harvested, homogenized in lysis buffer, immunoprecipitated with anti-FLT3 antibody FIG. 33.
(§3) The curve (solid dot) is the plot of plasma concentration-time profiles of NTW-3456 after oral administration of 50 mg/kg.

[4] = system: AN3 human endometrial carcinoma xenograft; assay: Endometrial carcinoma xenograft; assay type: in vivo, mouse
[5] = system: Panc-1 pancreatic carcinoma; assay: Panc-1 model of pancreatic carcinoma; assay type: in vivo, mouse; conditions: with or without Abraxane
[6] = Plasma concentration after oral dosing in MV4-11 tumor-bearing mice (LCMS); assay type: in vivo; conditions: SCID, mouse, 24 hour after single oral 50 mg/kg
Description: as §2, §3

Chain of EphA5(h) (P54756 25-1037): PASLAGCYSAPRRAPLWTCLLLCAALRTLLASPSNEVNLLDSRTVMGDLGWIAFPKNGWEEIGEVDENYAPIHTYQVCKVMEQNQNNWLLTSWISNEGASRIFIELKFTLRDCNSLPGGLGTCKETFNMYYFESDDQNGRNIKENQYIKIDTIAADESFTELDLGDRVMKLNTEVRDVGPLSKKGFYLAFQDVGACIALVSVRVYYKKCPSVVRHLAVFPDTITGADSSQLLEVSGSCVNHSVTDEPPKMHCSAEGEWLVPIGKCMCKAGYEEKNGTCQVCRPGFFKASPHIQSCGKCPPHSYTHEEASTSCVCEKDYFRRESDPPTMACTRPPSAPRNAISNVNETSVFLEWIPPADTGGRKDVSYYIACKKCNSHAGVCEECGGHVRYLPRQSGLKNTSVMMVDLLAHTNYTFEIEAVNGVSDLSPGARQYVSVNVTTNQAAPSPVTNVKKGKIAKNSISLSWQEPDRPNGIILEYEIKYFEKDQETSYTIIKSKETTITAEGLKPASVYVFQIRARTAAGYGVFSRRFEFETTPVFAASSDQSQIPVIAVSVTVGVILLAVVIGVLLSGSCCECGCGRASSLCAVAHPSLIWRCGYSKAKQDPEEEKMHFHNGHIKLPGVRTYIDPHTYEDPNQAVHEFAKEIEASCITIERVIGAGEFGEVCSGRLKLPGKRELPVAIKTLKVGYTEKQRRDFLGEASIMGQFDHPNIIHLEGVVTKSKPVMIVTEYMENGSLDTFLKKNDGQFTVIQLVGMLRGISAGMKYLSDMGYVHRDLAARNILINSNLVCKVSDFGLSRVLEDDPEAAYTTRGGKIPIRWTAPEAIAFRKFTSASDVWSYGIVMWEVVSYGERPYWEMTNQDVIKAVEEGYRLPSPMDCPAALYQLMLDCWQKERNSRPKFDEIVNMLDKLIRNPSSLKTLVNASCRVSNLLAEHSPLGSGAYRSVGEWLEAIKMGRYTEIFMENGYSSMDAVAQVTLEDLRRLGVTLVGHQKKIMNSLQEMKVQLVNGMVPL
Chain of AMPKα1(h) (Q13131 whole entry): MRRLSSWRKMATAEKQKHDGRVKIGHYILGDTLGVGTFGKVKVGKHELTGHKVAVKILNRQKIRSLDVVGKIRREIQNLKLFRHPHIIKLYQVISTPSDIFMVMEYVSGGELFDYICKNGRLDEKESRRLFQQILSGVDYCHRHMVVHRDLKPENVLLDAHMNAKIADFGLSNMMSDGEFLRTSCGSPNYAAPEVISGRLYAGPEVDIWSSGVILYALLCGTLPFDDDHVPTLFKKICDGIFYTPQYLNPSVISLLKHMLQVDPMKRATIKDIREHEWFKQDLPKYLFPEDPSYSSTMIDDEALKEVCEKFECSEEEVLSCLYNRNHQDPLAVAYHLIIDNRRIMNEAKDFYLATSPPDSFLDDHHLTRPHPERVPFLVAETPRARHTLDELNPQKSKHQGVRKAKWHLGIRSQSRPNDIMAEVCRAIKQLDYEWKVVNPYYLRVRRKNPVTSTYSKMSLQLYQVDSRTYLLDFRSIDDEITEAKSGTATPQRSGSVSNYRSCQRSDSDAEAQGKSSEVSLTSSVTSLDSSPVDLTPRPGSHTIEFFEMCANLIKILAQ
Chain of AMPKα1(h) (Q9Y478 whole entry partner): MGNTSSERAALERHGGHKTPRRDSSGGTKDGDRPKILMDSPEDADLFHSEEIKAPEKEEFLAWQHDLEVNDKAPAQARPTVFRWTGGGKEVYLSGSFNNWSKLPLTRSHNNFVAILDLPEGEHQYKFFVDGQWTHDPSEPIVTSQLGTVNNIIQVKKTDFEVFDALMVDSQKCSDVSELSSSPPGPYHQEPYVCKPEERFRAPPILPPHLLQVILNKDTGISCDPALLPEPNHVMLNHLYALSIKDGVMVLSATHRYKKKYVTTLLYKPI
Chain of AMPKα1(h) (P54619 whole entry partner): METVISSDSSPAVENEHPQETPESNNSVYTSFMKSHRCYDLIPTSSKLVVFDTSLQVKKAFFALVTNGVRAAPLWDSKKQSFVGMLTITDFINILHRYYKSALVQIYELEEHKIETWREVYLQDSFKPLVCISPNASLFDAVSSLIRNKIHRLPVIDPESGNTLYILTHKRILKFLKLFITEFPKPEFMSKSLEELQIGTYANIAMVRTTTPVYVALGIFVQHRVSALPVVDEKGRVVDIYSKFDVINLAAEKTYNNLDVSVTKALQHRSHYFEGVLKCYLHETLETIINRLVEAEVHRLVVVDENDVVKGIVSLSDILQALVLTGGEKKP
Chain of IKKβ(h) (O14920 whole entry): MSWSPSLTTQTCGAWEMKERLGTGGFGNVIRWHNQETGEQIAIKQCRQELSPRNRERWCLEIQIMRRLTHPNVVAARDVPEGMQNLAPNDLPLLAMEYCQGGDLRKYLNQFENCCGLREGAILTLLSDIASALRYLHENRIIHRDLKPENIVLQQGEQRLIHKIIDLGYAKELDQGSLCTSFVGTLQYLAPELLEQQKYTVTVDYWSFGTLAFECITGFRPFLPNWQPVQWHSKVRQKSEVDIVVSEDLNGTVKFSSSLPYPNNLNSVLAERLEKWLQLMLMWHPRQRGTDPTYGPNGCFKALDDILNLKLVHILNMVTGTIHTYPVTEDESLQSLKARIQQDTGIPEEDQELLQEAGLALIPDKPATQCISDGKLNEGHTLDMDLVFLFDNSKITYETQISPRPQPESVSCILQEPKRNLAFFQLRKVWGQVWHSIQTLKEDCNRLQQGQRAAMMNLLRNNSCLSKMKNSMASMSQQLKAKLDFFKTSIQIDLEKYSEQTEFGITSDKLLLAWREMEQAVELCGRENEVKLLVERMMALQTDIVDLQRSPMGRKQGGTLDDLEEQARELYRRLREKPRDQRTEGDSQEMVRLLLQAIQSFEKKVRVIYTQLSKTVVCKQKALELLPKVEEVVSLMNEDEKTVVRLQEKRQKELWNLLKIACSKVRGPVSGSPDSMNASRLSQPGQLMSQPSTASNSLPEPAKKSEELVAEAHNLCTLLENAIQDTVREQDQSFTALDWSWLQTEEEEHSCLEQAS
Chain of SAPK2a(T106M)(h) (Q16539 whole entry T106M): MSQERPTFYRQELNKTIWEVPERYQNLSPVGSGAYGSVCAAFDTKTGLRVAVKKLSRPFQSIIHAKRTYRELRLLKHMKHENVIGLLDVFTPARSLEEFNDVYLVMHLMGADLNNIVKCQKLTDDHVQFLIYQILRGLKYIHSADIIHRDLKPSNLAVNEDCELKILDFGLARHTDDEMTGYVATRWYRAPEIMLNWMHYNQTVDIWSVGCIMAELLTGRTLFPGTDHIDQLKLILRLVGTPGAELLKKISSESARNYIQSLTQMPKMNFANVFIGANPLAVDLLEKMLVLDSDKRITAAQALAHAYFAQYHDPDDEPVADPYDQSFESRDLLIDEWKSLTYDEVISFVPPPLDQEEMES
Chain of LKB1(h) (Q15831 whole entry): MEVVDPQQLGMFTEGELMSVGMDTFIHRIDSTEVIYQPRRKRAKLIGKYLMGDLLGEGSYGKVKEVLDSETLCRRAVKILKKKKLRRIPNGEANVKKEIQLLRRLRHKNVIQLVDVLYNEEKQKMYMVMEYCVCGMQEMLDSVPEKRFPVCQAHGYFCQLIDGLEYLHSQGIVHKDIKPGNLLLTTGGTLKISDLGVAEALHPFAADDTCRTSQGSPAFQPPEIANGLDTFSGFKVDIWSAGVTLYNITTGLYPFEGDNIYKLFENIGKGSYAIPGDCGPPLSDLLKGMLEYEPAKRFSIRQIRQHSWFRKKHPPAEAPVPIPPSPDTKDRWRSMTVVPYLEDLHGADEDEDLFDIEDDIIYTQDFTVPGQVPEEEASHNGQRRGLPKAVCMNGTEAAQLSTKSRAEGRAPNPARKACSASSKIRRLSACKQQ
Chain of LKB1(h) (Q7RTN6 whole entry partner): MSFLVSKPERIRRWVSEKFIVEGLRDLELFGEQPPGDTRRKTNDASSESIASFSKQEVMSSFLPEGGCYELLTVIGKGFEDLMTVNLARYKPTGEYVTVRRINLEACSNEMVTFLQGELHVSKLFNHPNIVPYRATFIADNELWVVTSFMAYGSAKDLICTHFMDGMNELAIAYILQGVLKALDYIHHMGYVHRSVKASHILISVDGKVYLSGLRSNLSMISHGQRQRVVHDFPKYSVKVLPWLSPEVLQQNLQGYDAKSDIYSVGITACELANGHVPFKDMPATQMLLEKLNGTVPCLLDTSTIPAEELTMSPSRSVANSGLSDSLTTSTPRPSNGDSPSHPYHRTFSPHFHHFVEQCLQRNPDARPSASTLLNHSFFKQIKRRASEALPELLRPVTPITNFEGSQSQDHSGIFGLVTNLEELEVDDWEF
Chain of LKB1(h) (Q9Y376 whole entry partner): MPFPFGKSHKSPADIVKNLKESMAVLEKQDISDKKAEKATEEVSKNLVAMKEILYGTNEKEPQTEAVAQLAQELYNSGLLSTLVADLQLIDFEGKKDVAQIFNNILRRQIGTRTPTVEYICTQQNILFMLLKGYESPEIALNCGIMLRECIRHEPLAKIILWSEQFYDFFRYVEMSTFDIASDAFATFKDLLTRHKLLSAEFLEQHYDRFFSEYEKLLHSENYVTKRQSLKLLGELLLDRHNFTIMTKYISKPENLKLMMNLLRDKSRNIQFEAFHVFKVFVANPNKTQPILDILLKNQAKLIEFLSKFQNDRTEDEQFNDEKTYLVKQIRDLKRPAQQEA

concentration at 24 h [6] [nM] | SMILES | maximum body weight lose ([1]; Q2Dx3) [%] | treat/control (T/C) ([1]; Q2Dx3, day 30) [%] | maximum body weight lose ([2]; QDx4) [%] | treat/control (T/C) ([2]; QDx4, day 13) [%] | inhibition at 0.1 µM (LKB1(h)) [%] | inhibition at 0.1 µM (EphA5(h)) [%] | inhibition at 0.1 µM (TAO3(h)) [%] | inhibition at 0.1 µM (AMPKα1(h)) [%] | inhibition at 0.1 µM (SAPK2a(T106M)(h)) [%] | inhibition at 0.1 µM (IKKβ(h)) [%] | inhibition at 0.1 µM (Axl(h)) [%] | inhibition at 50 mg/kg [3] [%] | anti-tumor effect [4] | anti-tumor activity [5]
– | C/C=C/c1cc(Nc2cc(N3CCN(C)CC3)nc(Oc3ccc4[nH]c(C)cc4c3F)n2)n[nH]1 [Compound 53] | 3.4 | 40 | 10.3 | 21 | – | – | – | – | – | – | – | – | – | –
– | Cc1cc2c(F)c(Oc3nc(Nc4cc(C5CC5)[nH]n4)cc(N4CCN(C)CC4)n3)ccc2[nH]1 [Compound 10] | – | – | – | – | 14 | 76 | 20 | 71 | 2 | 1 | 70 | – | – | –
– | Cc1cc2c(F)c(Oc3nc(Nc4cc(C5CC5)[nH]n4)cc(N4CCNCC4)n3)ccc2[nH]1 [Compound 11, N-(5-cyclopropyl-1H-pyrazol-3-yl)-2-((4-fluoro-2-methyl-1H-indol-5-yl)oxy)-6-(piperazin-1-yl)pyrimidin-4-amine] | – | – | – | – | -1 | 81 | 8 | 72 | 3 | 5 | 62 | – | – | –
7 | C/C=C/c1cc(Nc2cc(N3CCN(C)CC3)nc(Oc3cc(F)c4[nH]c(C)cc4c3F)n2)n[nH]1 [NTW-3456] | – | – | – | – | – | – | – | – | – | – | – | > 60 | significant anti-tumor activity | significant anti-tumor activity
